Paper PMC6416898, “Prediction of Toxoplasma gondii virulence factor ROP18 competitive inhibitors by virtual screening” (Parasites & Vectors, 2019)
Read-outs that look alike come from different tables or passages of the source.

Biological target: T1, ROP18 (187–554 aa) kinase domain (Toxoplasma gondii, UniProt Q2PAY2)
T1 construct: kinase domain 187-554 of ROP18; His6-GST-MBP-Gb1 fusion from plasmid pETDL4.0-ROP18, E. coli Rosetta 2, amylose beads; 4JRN is the docking structure (187-554), not solved here
T1 sequence (Q2PAY2 187-554): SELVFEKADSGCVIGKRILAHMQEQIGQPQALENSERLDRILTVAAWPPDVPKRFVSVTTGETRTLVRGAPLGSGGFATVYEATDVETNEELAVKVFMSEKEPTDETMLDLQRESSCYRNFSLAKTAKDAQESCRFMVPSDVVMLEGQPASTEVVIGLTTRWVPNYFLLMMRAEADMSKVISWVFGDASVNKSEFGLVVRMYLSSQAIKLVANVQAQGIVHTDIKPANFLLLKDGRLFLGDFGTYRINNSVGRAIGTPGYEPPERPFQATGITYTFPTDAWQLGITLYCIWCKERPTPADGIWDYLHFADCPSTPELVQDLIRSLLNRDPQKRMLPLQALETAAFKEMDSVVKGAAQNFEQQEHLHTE
Assay: HTRF KinEASE kinase assay with biotinylated peptide substrate
Type: biochemical

Structure (SMILES)	IC50 [nM]	IC50 (read-out: IC50) [nM]
C=CCN1C(=O)NC(=O)/C(=C/c2cc(Br)c(OCC(=O)O)c(OC)c2)C1=O [compound 1]	220	–
O=C(O)CCCCCN1C(=O)c2c(Br)c(Br)c(Br)c(Br)c2C1=O [compound 11, AK-918/11642046]	–	41
